Results reported in patent US7148380B2, “Bio-energy muscle relaxants” (priority 2000, dated 2006).
“And” between values parts separate entries of the source, which are not always exact repeats. Identical values can stand only once. Like-named read-outs stand apart in the source and are kept apart here.

Assays:
[1] = test system: isolated colon tissues from guinea pigs; experiment: Isolated colon smooth muscle contraction induced by BaCl2; parameters: species or system guinea pig
Text: To investigate this effect, 14 guinea pigs (provided by the Center of Experimental Animals, First Military Medical University, Guangzhou, China, certificate No. 99A047) with body weight of 240±20 g were used for the study. Following sacrifice of the animal by cervical dislocation, the colon was isolated within Botting solution, a segment of the colon in 2 cm length was taken to mount on the equipment—one end connected to a force transducer, the other end fixed at the bottom of the organ water-bath (DC-001 Organ Bath, made in Nanjin, China) containing oxygenated nutritious solution at 37° C.
Group “t” test was then made. Significance is considered to be established when P<0.05
The animals were divided as test group and control (placebo) group.
Where Fc is force of the smooth muscle contraction.
Paired group “t” test was made to compare contraction force after BDM and distilled water to determine whether there is a significant difference between the two groups.

[2] = test system: convulsion induced by strychnine; type: in vivo, NIH mice; conditions: for Convulsion / The latent period / Convulsion-Death time / Death: n=12; for The latent period / Convulsion-Death time: mean±SD; for Convulsion-Death time: P<0.01 vs control
Procedure: To investigate the effect, 36 mice (provided by the Center of Experimental Animals, Provincial Health Department, Guangdong, China, Certificate No. 99A030) were used for the study, the animals were grouped as placebo, preventing, and treatment groups. Muscle convulsion was induced with injection of strychnine (1.5 mg/kg I.P., injection product of 2 mg/ml, He Feng Pharmaceutical Co., Shanghai, China, Lot. No. 990701), the beginning and lasting time of the convulsion were recorded.
Half male and female healthy NIH mice with body weight of 20±2 g were selected for the study. The animals were randomly divided into three groups as protective, curative, and control (saline). […] In the control group, saline (20 ml/kg, I.P.) was administered 0.5 h before the strychnine. Immediately following the injection of strychnine, convulsion latent period and the time from beginning of convulsion to death of the animal were recorded. […] (see Table 7).

[3] = curative: BDM immediately after strychnine
[4] = preventive: BDM 0.5 h prior to strychnine

In the case of CC(=O)C(C)=NO [BDM, 2,3-butanedione monoxime], the “Contraction force, After” value ([1]; BaCl2 0.67 g/L, 10 min after BDM 0.2M, 20 ml/L nutritious sol., single preparations) was 1.70 g and 1.35 g and 1.45 g and 1.75 g and 2.20 g, the “Contraction force, Before” value ([1]; BaCl2 0.67 g/L, before BDM, single colon preparations of the test group) was 2.35 g and 2.30 g and 2.45 g and 2.70 g and 2.90 g and the “Contraction Rate” value ([1]; force after / before BDM 0.2M, 20 ml/L, single preparations) was 72.3% and 58.7% and 61.7% and 76.1% and 69.4% and 64.8% and 75.9%. The Convulsion ([2]; curative: BDM 0.2M, 20 ml/kg I.P. immediately after strychnine 1.5 mg/kg I.P.) was 100%, the The latent period [2, 3] was 134.2 ± 31.5 s and the Convulsion-Death time [2, 3] was 538.3±169.3 s and 538.3 ± 169.3^★★ s. The Death [2, 3] was 100%, the “Behaviour of the animals after administration of BDM” value ([2]; mice, BDM 0.2M, 20 ml/kg, I.P.) was “reducing activities, difficulties in action and toddling” and the Convulsion ([2]; preventive: BDM 0.2M, 20 ml/kg I.P. 0.5 h prior to strychnine 1.5 mg/kg I.P.) was 100%. For the same compound, the The latent period [2, 4] was 183.8 ± 32.6 s, the Convulsion-Death time [2, 4] was 496.3±285.3 s and 496.3 ± 285.3^★★ s and the Death [2, 4] was 100%.
